Consider 14 compounds from US20180172712A1, “METHODS AND MATERIALS FOR ASSESSING HYDROGEN PEROXIDE ACCUMULATION IN CELLS” (Mayo Foundation for Medical Education and Research, priority 2015, published 2018).

Assay [1] has as its system Myeloma cell line harboring CRBN or without CRBN. The experiment in a line: Cell survival of myeloma cell line harboring CRBN or without CRBN treated with cofactors. It is filed as cell-based, human. To be noted: cofactor alone. From the text:
(§1) The data were normalized to the DMSO-treated group.

For assay [2], the system named is IKZF1 and IKZF3. The experiment in a line: Western blot of IKZF1 and IKZF3 in MM.1S cells. The format is cell-based, human. To be noted: for IKZF1 and IKZF3 degradation: MM.1S cells, 3 hours (lenalidomide 10 μM, H2O2 100 μM, PX12 20 μM). From the text: (§2) Proteins were transferred to polyvinylidene fluoride membranes (Bio-Rad).
(In general: Immunoblotting shows a protein as a band on a membrane.)

Assay [3] concerns IKZF1 and IKZF3. The experiment in a line: Western blot of IKZF1 and IKZF3 in OCIMY-5 cells overexpressing CRBN. The format is cell-based, human. To be noted: lenalidomide 10 μM or H2O2 25 or 50 μM, within 3 hours. On the procedure: as §2
(§3) Human CRBN cDNA was obtained from Thermo Scientific and subcloned into a lentiviral expression vector, pCDH-CMV-MCS-EF1-copGFP (System Bioscience). Lentivirus harboring control vector and CRBN cDNA constructs were prepared and used to infect the multiple myeloma (MM) cell line OCIMY5. Infection efficiency was measured by FACScan analysis of GFP expression 3 days after infection. The cells were sorted for GFP expression 14 days after infection.

Another assay relates to RPMI-8226 cells. The experiment in a line: MTT assay in RPMI-8226 cells. It is filed as cell-based, human. To be noted: RPMI-8226, 3 days.
From the text: as §1
(Formazan colour is commonly taken as a measure of viable cells.)

Another assay has as its system MM.1S cells. The experiment in a line: MTT assay in MM.1S cells. It is filed as cell-based, human. As to conditions: 3 days.
From the text: as §1

The test system of assay [4] is IKZF1 and IKZF3. To be noted: OPM2-NT vs OPM2-shCRBN; H2O2 25 or 50 μM, 3 hours.
From the text: as §2

A further assay deals with IgL-λ dimers. The experiment in a line: IgL dimerization immunoblot under nonreducing conditions in MM.1S cells. The format is cell-based, human. As to conditions: 3 hours, lenalidomide 10 μM or H2O2 25 μM.
From the text: as §2

Assay [5] deals with OCIMY5-Vector and OCIMY-CRBN cells. The experiment in a line: MTT assay in OCIMY5-Vector and OCIMY-CRBN cells. As to conditions: 72 hours. As to the method:
Cell viability was assessed by 3-(4,5-dimethylthiazol-2-yl)-2,5-diphenyltetrazolium bromide (MTT) colorimetric assay. […] The data were normalized to the DMSO-treated group. Each experimental condition was performed in triplicate and repeated at least once. Thalidomide was obtained from Sigma, and pomalidomide was obtained from Selleckchem.
as §3

The subject of assay [6] is myeloma cell line harboring CRBN and myeloma cell line without CRBN. The experiment in a line: Viability of myeloma cell lines with auranofin and bortezomib. It is filed as cell-based, human. As to conditions: bortezomib in combination with auranofin.
A further assay relates to OPM2 cells. The experiment in a line: Apoptosis assay (Annexin V/propidium iodide FACS) in OPM2 cells. The format is cell-based, human. As to conditions: lenalidomide 10 μM pretreatment two days, bortezomib 2.5 nM 2 days.
In the next assay the test system is PARP. The experiment in a line: PARP cleavage immunoblot in OPM2-NT and OPM2-shCRBN cells. To be noted: OPM2 CRBN-positive cells; bortezomib 2.5 nM 2 days. It is filed as cell-based, human.
From the text: as §2

Assay [7] deals with myeloma cells. The experiment in a line: MTT assay of auranofin in myeloma cells. The format is cell-based, human.
From the text: as §1

The test system of another assay is thioredoxin reductase. The experiment in a line: Thioredoxin reductase inhibition.
The subject of assay [8] is myeloma cells. The experiment in a line: Intracellular H2O2 accumulation in myeloma cells. It is filed as cell-based, human.
For assay [9], the system named is myeloma cells. The experiment in a line: MTT assay of dehydroascorbic acid in myeloma cells. As to conditions: high concentrations. The format is cell-based, human.
From the text: as §1

Another assay relates to RPMI-8226 myeloma cells. The experiment in a line: Anti-oxidative capacity by FAD and NAD(P)H autofluorescence flow cytometry. It is filed as cell-based, human. To be noted: pre-treatment of myeloma cells, then external H2O2. As to the method: HMCLs cells (1 million cells/1 mL PBS) treated or not treated with 100 μM concentration of H2O2 were immediately analyzed for autofluoresnece of FAD (FITC-A channel) and NAD(P)H (UV Blue-A channel) with multicolor flow cytometry (BD LSRFORTESSA). Flowjo histogram normalization was used to overlay untreated versus treated samples.
(Flow cytometry measures light scatter and fluorescence of single cells or particles in a stream.)

The target in the next assay is T1, Horseradish peroxidase (Armoracia rusticana, UniProt P00433).
T1 sequence (P00433 31-338 limits assumed): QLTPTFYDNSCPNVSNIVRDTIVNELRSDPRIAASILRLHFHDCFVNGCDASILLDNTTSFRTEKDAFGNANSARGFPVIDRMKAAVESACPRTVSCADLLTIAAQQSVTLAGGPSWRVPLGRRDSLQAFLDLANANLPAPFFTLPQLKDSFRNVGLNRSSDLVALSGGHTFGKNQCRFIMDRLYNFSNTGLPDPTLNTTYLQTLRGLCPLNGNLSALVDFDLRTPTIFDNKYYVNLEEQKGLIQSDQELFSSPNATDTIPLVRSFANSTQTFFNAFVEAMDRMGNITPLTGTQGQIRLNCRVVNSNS
The experiment in a line: HRP/Amplex Red in-vitro assay. As to conditions: 10 μM drug, 5 μM H2O2, 30 minutes. The format is biochemical. As to the method: (§4) After 30 minutes, plates were read for fluorescence at 530 nm excitation and 590 nm emission with plate reader (Biotek Cytation3). For determining intra-cellular peroxidase activity by Amplex Red, cells were washed and mixed with Amplex Red reagent (50 μM) in HBSS buffer and plated 100,000 cells per well into 96 well plate, four wells for each condition. […] The DMSO control included H2O2 (100 μM). […] After specific time periods, the plates were read for fluorescence intensity using plate reader.

Assay [10] relates to intracellular peroxidases in HMCLs. The experiment in a line: Intra-cellular peroxidase activity by Amplex Red in HMCLs. As to conditions: for intracellular H2O2 decomposition mediated by peroxidases: different myeloma cell lines, thalidomide 20 μM, lenalidomide 20 μM, pomalidomide 10 μM, 40 to 60 minutes. The format is cell-based, human. As to the method: as §4
Assay [11] has as its system IKZF1 and IKZF3. The experiment in a line: Western blot of IKZF1 and IKZF3 in OPM2 cells. It is filed as cell-based, human. To be noted: PX12 20 μM, within 3 hours.
From the text: as §2

[12] abbreviates: OCIMY5-Vector (CRBN deficient) cells.
The mark [13] stands for this setting: OCIMY-CRBN (CRBN positive) cells.

Molecules are shown by their SMILES. Like-named read-outs stand apart in the source and are kept apart here.

For `NC(=O)c1ccc[n+]([C@@H]2O[C@H](COP(=O)([O-])OP(=O)(O)OC[C@H]3O[C@@H](n4cnc5c(N)ncnc54)[C@H](OP(=O)(O)O)[C@@H]3O)[C@@H](O)[C@H]2O)c1` [NADP], the cell survival result in assay [1] was “induced cell death”.
As to `OO` [H2O2, hydrogen peroxide], the “IKZF1 and IKZF3 degradation” value in the assay on IKZF1 and IKZF3 [2] is “degraded IKZF1 and IKZF3 most effectively”; with IKZF1 and IKZF3 [3], “enhanced IKZF1 and IKZF3 degradation”; in the assay with IKZF1 and IKZF3 [4], “in a CRBN-dependent fashion”. The IKZF1 degradation entry in the assay on IKZF1 and IKZF3 [2] (MM.1S, 3 hours of treatment) was “prominent”. In addition, in the assay with IKZF1 and IKZF3 [2] (MM.1S, exogenous H2O2 50 μM), the “time of peak IKZF1 dimerization after treatment” value stood at 60 min. Further, the IKZF1 dimerization result in the assay with IKZF1 and IKZF3 [2] (MM.1S, nonreducing conditions, lenalidomide 10 μM or exogenous H2O2 50 μM) is reported as “induced IKZF1 dimerization”. Further, the “sensitivity of cell line (MTT)” value is recorded as “resistant” in the assay with RPMI-8226 cells and “hypersensitive” in the assay on MM.1S cells. Besides, the “formation of IgL-λ dimers” value with IgL-λ dimers is reported as “increased formation of IgL-λ dimers”.
Regarding `O=C([O-])CC([S-])C(=O)[O-].[Au+].[Na+].[Na+]` (centres unmarked) [ATM, sodium aurothiomalate], the “cell proliferation (MTT)” value in assay [5] (setting [12]) and in assay [5] (setting [13]) was “did not inhibit cell proliferation” throughout.
As for `CC(C)C[C@H](NC(=O)[C@H](Cc1ccccc1)NC(=O)c1cnccn1)B(O)O` [bortezomib], the “interaction with auranofin (percent viability)” value in assay [6] is reported as “synergy”. The “bortezomib-induced apoptosis in cells pretreated with lenalidomide vs not pretreated” value in the assay on OPM2 cells is on record as “increased sensitivity”. The “bortezomib-induced PARP cleavage after lenalidomide pretreatment” value with PARP is on record as “enhanced”.
Regarding `CC(=O)OC[C@H]1O[C@@H]([S-])[C@H](OC(C)=O)[C@@H](OC(C)=O)[C@@H]1OC(C)=O.CCP(CC)CC.[Au+]` [auranofin], in the assay on myeloma cells [7], the “CRBN dependence of inhibition of cancer cell proliferation” value was “irrespective of CRBN level” and the “potency in inhibiting cancer cell proliferation, compared with lenalidomide” value was “more potent than lenalidomide”. The “cancer cell viability (MTT)” value in the assay with myeloma cells [7] (myeloma cells) is “reducing cancer cell viability”. The “potency in inhibiting thioredoxin reductase, compared with lenalidomide” value with thioredoxin reductase is on record as “more potent than lenalidomide”. Also, in the assay with myeloma cells [8], the “intracellular H2O2 accumulation” value is reported as “effective at accumulating intracellular H2O2”.
As to `O=C1O[C@H]([C@@H](O)CO)C(=O)C1=O` [DHA, Dehydroascorbic acid], the “myeloma cell proliferation (MTT)” value in the assay on myeloma cells [9] is on record as “inhibited myeloma cell proliferation”.
As to `O=C(O)CCCC[C@@H]1CCSS1` [lipoic acid], the “anti-oxidative capacity (FADH2 and NAD(P)H oxidation)” value in the assay with RPMI-8226 myeloma cells is reported as “decreased myeloma cells anti-oxidative capacity”.
Consider `O=C1CCC(N2C(=O)c3ccccc3C2=O)C(=O)N1` (centres unmarked) [thalidomide], for which, at Horseradish peroxidase, the “decomposition of H2O2 by horseradish peroxidase (Amplex Red to resorufin)” value is reported as “inhibited”. The “intracellular H2O2 decomposition mediated by peroxidases” value in assay [10] is on record as “inhibit intracellular H2O2 decomposition”.
As for `NC(=O)c1ccc[n+]([C@@H]2O[C@H](COP(=O)([O-])OP(=O)(O)OC[C@H]3O[C@@H](n4cnc5c(N)ncnc54)[C@H](O)[C@@H]3O)[C@@H](O)[C@H]2O)c1` [NAD], in [1], the cell survival result is “induced cell death”.
As for `Nc1cccc2c1C(=O)N(C1CCC(=O)NC1=O)C2=O` (centres unmarked) [pomalidomide], the “decomposition of H2O2 by horseradish peroxidase (Amplex Red to resorufin)” value on Horseradish peroxidase was “inhibited”. Also, the “inhibition of intracellular peroxidases compared among IMIDs” value in assay [10] (FIG. 1C-E and FIG. 2A) is “more potentially than thalidomide and lenalidomide”. Also, the “intracellular H2O2 decomposition mediated by peroxidases” value in assay [10] was “inhibit intracellular H2O2 decomposition”.
`NC(=O)C1=CN([C@@H]2O[C@H](COP(=O)(O)OP(=O)(O)OC[C@H]3O[C@@H](n4cnc5c(N)ncnc54)[C@H](OP(=O)(O)O)[C@@H]3O)[C@@H](O)[C@H]2O)C=CC1` [NADPH]: the cell survival result in assay [1] is “induced cell death”.
In the case of `NC(=O)C1=CN([C@@H]2O[C@H](COP(=O)(O)OP(=O)(O)OC[C@H]3O[C@@H](n4cnc5c(N)ncnc54)[C@H](O)[C@@H]3O)[C@@H](O)[C@H]2O)C=CC1` [NADH], the cell survival entry in [1] is on record as “induced cell death”.
Consider `NC(=O)CCCCC1CCSS1` (centres unmarked) [lopoamide], for which the “anti-oxidative capacity (FADH2 and NAD(P)H oxidation)” value with RPMI-8226 myeloma cells was “decreased myeloma cells anti-oxidative capacity”.
Take `CCC(C)SSc1ncc[nH]1` (centres unmarked) [PX12, 1-methylpropyl 2-imidazolyl disulfide]: the “IKZF1 and IKZF3 degradation” value was “induced IKZF1 and IKZF3 degradation” in the assay on IKZF1 and IKZF3 [2]; “induced IKZF1 and IKZF3 degradation” in the assay with IKZF1 and IKZF3 [11]. In addition, the “cell proliferation (MTT)” value in assay [5] (setting [12]) and in [5] (setting [13]) was “inhibited cell proliferation” each time.
